Converted amounts (≈) assume the structure as drawn. Like-named read-outs stand apart in the source and are kept apart here.
System: H37Rv strain of Mycobacterium tuberculosis
Assay: MIC against H37Rv strain
Format: cell-based
Procedure: The purpose of this study was to test activity of selected tetracycline compounds against the H37Rv strain of Mycobacterium tuberculosis. Minimum inhibitory concentrations (MIC) of different tetracycline compounds against H37Rv strain were determined and are shown in Table 8.

[1] = Mycobacterium tuberculosis, H37RV, read-out: MIC
[2] = Mycobacterium tuberculosis, H37RV

For `CN(C)[C@@H]1C(O)=C(C(N)=O)C(=O)[C@@]2(O)C(O)=C3C(=O)c4c(O)c(CNC(=O)c5cccnc5)cc(CCC5CCCCC5)c4C[C@H]3C[C@@H]12` [Compound 2], the MIC [1] was over 32 µg/mL.
For `CN(C)Cc1cc(N(C)C)c2c(c1O)C(=O)C1=C(O)[C@]3(O)C(=O)C(C(N)=O)=C(O)[C@@H](N(C)C)[C@@H]3C[C@@H]1C2` [Compound 40], the MIC [1] was 32 µg/mL (≈ 62.2 µM).
`CN(C)c1cc(CNCC(C)(C)C)c(O)c2c1C[C@H]1C[C@H]3C(N(C)C)C(O)=C(C(N)=O)C(=O)[C@@]3(O)C(O)=C1C2=O` (stereo partly shown) [Compound 29] showed an MIC [1] of 32 µg/mL (≈ 57.5 µM).
For `CCc1cc(CNC(=O)c2cccnc2)c(O)c2c1C[C@H]1C[C@H]3[C@H](N(C)C)C(O)=C(C(N)=O)C(=O)[C@@]3(O)C(O)=C1C2=O` [Compound 1], the MIC [1] was over 32 µg/mL.
`CCc1cc(CC)c2c(c1O)C(=O)C1=C(O)[C@]3(O)C(=O)C(C(N)=O)=C(O)[C@@H](N(C)C)[C@@H]3C[C@@H]1C2` [Compound 4] gave an MIC [1] of over 32 µg/mL.
In the case of `CC(C)CNCc1cc(N(C)C)c2c(c1O)C(=O)C1=C(O)[C@]3(O)C(=O)C(C(N)=O)=C(O)C(N(C)C)[C@@H]3C[C@@H]1C2` (stereo partly shown) [Compound 45], the MIC [1] is reported as 32 µg/mL (≈ 59 µM).
For `CC(N)CNCc1cc(N(C)C)c2c(c1O)C(=O)C1=C(O)[C@]3(O)C(=O)C(C(N)=O)=C(O)C(N(C)C)[C@@H]3C[C@@H]1C2` (stereo partly shown) [Compound 51], the MIC [1] was over 32 µg/mL.
For `CN(C)c1cc(CNC(=O)Oc2ccc(Br)cc2)c(O)c2c1C[C@H]1C[C@H]3[C@H](N(C)C)C(O)=C(C(N)=O)C(=O)[C@@]3(O)C(O)=C1C2=O` [Compound 21], the MIC [2] was 16 µg/mL (≈ 23.3 µM).
`CCNCC(=O)NCc1cc(N(C)C)c2c(c1O)C(=O)C1=C(O)[C@]3(O)C(=O)C(C(N)=O)=C(O)[C@H](N(C)C)[C@@H]3C[C@@H]1C2` [Compound 46] gave an MIC [1] of 32 µg/mL (≈ 56 µM).
Compound `CN(C)c1cc(CNC(=O)Oc2ccc(F)cc2)c(O)c2c1C[C@H]1C[C@H]3[C@H](N(C)C)C(O)=C(C(N)=O)C(=O)[C@@]3(O)C(O)=C1C2=O` [Compound 23] has an MIC [2] of 32 µg/mL (≈ 51.2 µM).
Compound `CN(C)c1cc(CNCC2CCNCC2)c(O)c2c1C[C@H]1C[C@H]3[C@@H](N(C)C)C(O)=C(C(N)=O)C(=O)[C@@]3(O)C(O)=C1C2=O` [Compound 49] has an MIC [1] of over 32 µg/mL.
With `CCOC(=O)NCc1cc(N(C)C)c2c(c1O)C(=O)C1=C(O)[C@]3(O)C(=O)C(C(N)=O)=C(O)[C@H](N(C)C)[C@@H]3C[C@@H]1C2` [Compound 13] the MIC [1] was 16 µg/mL (≈ 28.6 µM).
Work on `CN(C)c1cc(CNC(=O)Nc2ccc3c(c2)OCO3)c(O)c2c1C[C@H]1C[C@H]3[C@H](N(C)C)C(O)=C(C(N)=O)C(=O)[C@@]3(O)C(O)=C1C2=O` [Compound 24] yielded an MIC [1] of over 32 µg/mL.
In the case of `CN(C)c1cc(CNCc2ccc(C#N)cc2)c(O)c2c1C[C@H]1C[C@H]3C(N(C)C)C(O)=C(C(N)=O)C(=O)[C@@]3(O)C(O)=C1C2=O` (stereo partly shown) [Compound 78], the MIC [1] is reported as 32 µg/mL (≈ 53.2 µM).
Work on `CN(C)c1cc(CNCc2cc[n+]([O-])cc2)c(O)c2c1C[C@H]1C[C@H]3[C@H](N(C)C)C(O)=C(C(N)=O)C(=O)[C@@]3(O)C(O)=C1C2=O` [Compound 54] yielded an MIC [1] of 32 µg/mL (≈ 53.9 µM).
`CN(C)c1cc(CNC(=O)C2(N)CC2)c(O)c2c1C[C@H]1C[C@H]3[C@H](N(C)C)C(O)=C(C(N)=O)C(=O)[C@@]3(O)C(O)=C1C2=O` [Compound 59] was tested, and the MIC [1] was 16 µg/mL (≈ 28.1 µM).
`CN(C)[C@H]1C(O)=C(C(N)=O)C(=O)[C@@]2(O)C(O)=C3C(=O)c4c(O)c(CNCC(C)(C)C)cc(-c5ccoc5)c4C[C@H]3C[C@@H]12` [Compound 73] showed an MIC [1] of over 32 µg/mL.
Work on `CCc1cc(CNC(=O)CN(C)C)c(O)c2c1C[C@H]1C[C@H]3[C@@H](N(C)C)C(O)=C(C(N)=O)C(=O)[C@@]3(O)C(O)=C1C2=O` [Compound 36] yielded an MIC [1] of 32 µg/mL (≈ 57.5 µM).
For `CCc1cc(CNC(C)=O)c(O)c2c1C[C@H]1C[C@H]3C(N(C)C)C(O)=C(C(N)=O)C(=O)[C@@]3(O)C(O)=C1C2=O` (stereo partly shown) [Compound 6], the MIC [1] was over 32 µg/mL.
For `CC(NCc1cc(N(C)C)c2c(c1O)C(=O)C1=C(O)[C@]3(O)C(=O)C(C(N)=O)=C(O)C(N(C)C)[C@@H]3C[C@@H]1C2)C(F)(F)F` (stereo partly shown) [Compound 74], the MIC [1] was over 32 µg/mL.
For `CN(C)c1cc(CNCC2CCCCC2)c(O)c2c1C[C@H]1C[C@H]3[C@H](N(C)C)C(O)=C(C(N)=O)C(=O)[C@@]3(O)C(O)=C1C2=O` [Compound 57], the MIC [1] was 32 µg/mL (≈ 54.9 µM).
`CN(C)c1cc(CNCc2ccccc2)c(O)c2c1C[C@H]1C[C@H]3[C@H](N(C)C)C(O)=C(C(N)=O)C(=O)[C@@]3(O)C(O)=C1C2=O` [Compound 66] gave an MIC [1] of over 32 µg/mL.
For `Cc1ccc(OC(=O)NCc2cc(N(C)C)c3c(c2O)C(=O)C2=C(O)[C@]4(O)C(=O)C(C(N)=O)=C(O)[C@@H](N(C)C)[C@@H]4C[C@@H]2C3)cc1` [Compound 20], the MIC [2] was over 32 µg/mL.
`CN(C)c1cc(CNC(=O)OCC(C)(C)C)c(O)c2c1C[C@H]1C[C@H]3[C@H](N(C)C)C(O)=C(C(N)=O)C(=O)[C@@]3(O)C(O)=C1C2=O` [Compound 8] gave an MIC [1] of over 32 µg/mL.
`CC(C)NCc1cc(N(C)C)c2c(c1O)C(=O)C1=C(O)[C@]3(O)C(=O)C(C(N)=O)=C(O)[C@H](N(C)C)[C@@H]3C[C@@H]1C2` [Compound 39] gave an MIC [1] of over 32 µg/mL.
Compound `C=CCCOC(=O)NCc1cc(N(C)C)c2c(c1O)C(=O)C1=C(O)[C@]3(O)C(=O)C(C(N)=O)=C(O)[C@@H](N(C)C)[C@@H]3C[C@@H]1C2` [Compound 9] has an MIC [1] of over 32 µg/mL.
Compound `CN(C)c1ccc(NC(=O)NCc2cc(N(C)C)c3c(c2O)C(=O)C2=C(O)[C@]4(O)C(=O)C(C(N)=O)=C(O)[C@@H](N(C)C)[C@@H]4C[C@@H]2C3)cc1` [Compound 26] has an MIC [1] of 32 µg/mL (≈ 49.3 µM).
Work on `CC(C)CNCc1cc(N(C)C)c2c(c1O)C(=O)C1=C(O)[C@]3(O)C(=O)C(C(N)=O)=C(O)[C@H](N(C)C)[C@@H]3C[C@@H]1C2` [Compound 70] yielded an MIC [1] of 16 µg/mL (≈ 29.5 µM).
With `CN(C)c1cc(CNC(=O)c2ccno2)c(O)c2c1C[C@H]1C[C@H]3C(N(C)C)C(O)=C(C(N)=O)C(=O)[C@@]3(O)C(O)=C1C2=O` (stereo partly shown) [Compound 52] the MIC [1] was 16 µg/mL (≈ 27.5 µM).
`CN(C)c1cc(CNC(=O)Nc2ccc(OC(F)(F)F)cc2)c(O)c2c1C[C@H]1C[C@H]3[C@H](N(C)C)C(O)=C(C(N)=O)C(=O)[C@@]3(O)C(O)=C1C2=O` [Compound 27] showed an MIC [1] of 8 µg/mL (≈ 11.6 µM).
`Cc1noc(C)c1S(=O)(=O)NCc1cc(N(C)C)c2c(c1O)C(=O)C1=C(O)[C@]3(O)C(=O)C(C(N)=O)=C(O)[C@@H](N(C)C)[C@@H]3C[C@@H]1C2` [Compound 67] was tested, and the MIC [1] was over 32 µg/mL.
With `CC(C)CNCc1cc(N(C)C)c2c(c1O)C(=O)C1=C(O)[C@]3(O)C(=O)C(C(N)=O)=C(O)[C@@H](N(C)C)[C@@H]3C[C@@H]1C2` [Compound 14] the MIC (H37Rv) was 16 µg/mL (≈ 29.5 µM) and the MIC [1] was over 32 µg/mL.
`CN(C)c1cc(Cn2ccc(C=O)c2)c(O)c2c1C[C@H]1C[C@H]3[C@H](N(C)C)C(O)=C(C(N)=O)C(=O)[C@@]3(O)C(O)=C1C2=O` [Compound 69] showed an MIC [1] of over 32 µg/mL.
Work on `CCC(C)CNCc1cc(N(C)C)c2c(c1O)C(=O)C1=C(O)[C@]3(O)C(=O)C(C(N)=O)=C(O)[C@@H](N(C)C)[C@@H]3C[C@@H]1C2` (stereo partly shown) [Compound 53] yielded an MIC [1] of 16 µg/mL (≈ 28.7 µM).
With `CN(C)c1cc(CN2CCOCC2)c(O)c2c1C[C@H]1C[C@H]3[C@H](N(C)C)C(O)=C(C(N)=O)C(=O)[C@@]3(O)C(O)=C1C2=O` [Compound 80] the MIC [1] was 16 µg/mL (≈ 28.7 µM).
Compound `CN(C)c1cc(CNC(=O)OCC(Cl)(Cl)Cl)c(O)c2c1C[C@H]1C[C@H]3[C@H](N(C)C)C(O)=C(C(N)=O)C(=O)[C@@]3(O)C(O)=C1C2=O` [Compound 22] has an MIC [1] of over 32 µg/mL.
In the case of `CN(C)c1cc(CN2CCCCC2)c(O)c2c1C[C@H]1C[C@H]3[C@H](N(C)C)C(O)=C(C(N)=O)C(=O)[C@@]3(O)C(O)=C1C2=O` [Compound 56], the MIC [1] is reported as 16 µg/mL (≈ 28.8 µM).
For `CC(CF)NCc1cc(N(C)C)c2c(c1O)C(=O)C1=C(O)[C@]3(O)C(=O)C(C(N)=O)=C(O)C(N(C)C)[C@@H]3C[C@@H]1C2` (stereo partly shown) [Compound 42], the MIC [2] was 32 µg/mL (≈ 58.5 µM).
`CC(=O)NCc1cc(N(C)C)c2c(c1O)C(=O)C1=C(O)[C@]3(O)C(=O)C(C(N)=O)=C(O)C(N(C)C)[C@@H]3C[C@@H]1C2` (stereo partly shown) [Compound 3] gave an MIC [1] of over 32 µg/mL.
`CN(C)C1C(O)=C(C(N)=O)C(=O)[C@@]2(O)C(O)=C3C(=O)c4c(O)c(CNCC(C)(C)C)cc(CNCC(C)(C)C)c4C[C@H]3C[C@@H]12` (stereo partly shown) [Compound 64] was tested, and the MIC [1] was 32 µg/mL (≈ 52.2 µM).
Compound `CN(C)[C@@H]1C(O)=C(C(N)=O)C(=O)[C@@]2(O)C(O)=C3C(=O)c4c(ccc(CNCC(C)(C)C)c4O)C[C@H]3C[C@@H]12` [Compound 68] has an MIC [1] of over 32 µg/mL.
With `CN(C)C1C(O)=C(C(N)=O)C(=O)[C@@]2(O)C(O)=C3C(=O)c4c(O)c(CNC(=O)C5CC5)cc(-c5ccc(C(C)(C)C)cc5)c4C[C@H]3C[C@@H]12` (stereo partly shown) [Compound 31] the MIC [1] was over 32 µg/mL.
Work on `C[C@H]1c2ccc(CNC(=O)c3ccccc3)c(O)c2C(=O)C2=C(O)[C@]3(O)C(=O)C(C(N)=O)=C(O)[C@@H](N(C)C)[C@@H]3[C@@H](O)[C@@H]21` [Compound 37] yielded an MIC [1] of over 32 µg/mL.
Compound `CN(C)c1cc(CNC(=O)C(Cc2ccccc2)N(C)C)c(O)c2c1C[C@H]1C[C@H]3[C@@H](N(C)C)C(O)=C(C(N)=O)C(=O)[C@@]3(O)C(O)=C1C2=O` (stereo partly shown) [Compound 48] has an MIC [1] of over 32 µg/mL.
`CC(CC(F)(F)F)NCc1cc(N(C)C)c2c(c1O)C(=O)C1=C(O)[C@]3(O)C(=O)C(C(N)=O)=C(O)[C@@H](N(C)C)[C@@H]3C[C@@H]1C2` (stereo partly shown) [Compound 81] was tested, and the MIC [1] was 32 µg/mL (≈ 53.6 µM).
In the case of `COCCOC(=O)NCc1cc(N(C)C)c2c(c1O)C(=O)C1=C(O)[C@]3(O)C(=O)C(C(N)=O)=C(O)[C@@H](N(C)C)[C@@H]3C[C@@H]1C2` [Compound 19], the MIC [1] is reported as over 32 µg/mL.
Compound `CN(C)c1cc(CNC(=O)Oc2ccccc2)c(O)c2c1C[C@H]1C[C@H]3[C@H](N(C)C)C(O)=C(C(N)=O)C(=O)[C@@]3(O)C(O)=C1C2=O` [Compound 10] has an MIC [2] of over 32 µg/mL.
In the case of `Cc1csc(NCc2cc(N(C)C)c3c(c2O)C(=O)C2=C(O)[C@]4(O)C(=O)C(C(N)=O)=C(O)C(N(C)C)[C@@H]4C[C@@H]2C3)n1` (stereo partly shown) [Compound 62], the MIC [1] is reported as over 32 µg/mL.

From patent US20250332178A1, “METHODS OF TREATING MYCOBACTERIAL INFECTIONS USING TETRACYCLINE COMPOUNDS” (priority 2018, published 2025)
